According to paper PMC6886798, “Expression of myeloid Src-family kinases is associated with poor prognosis in AML and influences Flt3-ITD kinase inhibitor acquired resistance” (PLoS ONE, 2019):

Columns and labels:
Assay in all cases: KINOMEscan
Assay type in all cases: binding
Conditions in all cases: 1.0 µM
AAK1 = target: T1, AAK1 (Homo sapiens, UniProt Q2M2I8)
T1 construct: purchased Eurofins/DiscoverX KINOMEscan scanMAX
Procedure: (§1) Kinase retention to the immobilized ligand is then measured using quantitative real-time PCR for each kinase-specific DNA barcode.

[1] = target: T2, ABL1(F317L)-phosphorylated (Homo sapiens, UniProt P00519, F317L)
T2 construct: purchased Eurofins/DiscoverX KINOMEscan scanMAX
Procedure: as §1

[2] = target: T3, ABL1(Q252H)-phosphorylated (Homo sapiens, UniProt P00519, Q252H)
T3 construct: purchased Eurofins/DiscoverX KINOMEscan scanMAX
Procedure: as §1

AMPK-alpha2 = target: T4, AMPK-alpha2 (Homo sapiens, UniProt P54646)
T4 construct: purchased Eurofins/DiscoverX KINOMEscan scanMAX
Procedure: as §1

CDK4 = target: T5, CDK4 (Homo sapiens, UniProt P11802)
T5 construct: purchased Eurofins/DiscoverX KINOMEscan scanMAX
Procedure: as §1

CDK7 = target: T6, CDK7 (Homo sapiens, UniProt P50613)
T6 construct: purchased Eurofins/DiscoverX KINOMEscan scanMAX
Procedure: as §1

CDKL2 = target: T7, CDKL2 (Homo sapiens, UniProt Q92772)
T7 construct: purchased Eurofins/DiscoverX KINOMEscan scanMAX
Procedure: as §1

FGR = target: T8, FGR (Homo sapiens, UniProt P09769)
T8 construct: purchased Eurofins/DiscoverX KINOMEscan scanMAX
Procedure: as §1

GRK1 = target: T9, GRK1 (Homo sapiens, UniProt Q15835)
T9 construct: purchased Eurofins/DiscoverX KINOMEscan scanMAX
Procedure: as §1

GRK3 = target: T10, GRK3 (Homo sapiens, UniProt P35626)
T10 construct: purchased Eurofins/DiscoverX KINOMEscan scanMAX
Procedure: as §1

GSK3B = target: T11, GSK3B (Homo sapiens, UniProt P49841)
T11 construct: purchased Eurofins/DiscoverX KINOMEscan scanMAX
Procedure: as §1

HASPIN = target: T12, HASPIN (Homo sapiens, UniProt Q8TF76)
T12 construct: purchased Eurofins/DiscoverX KINOMEscan scanMAX
Procedure: as §1

HPK1 = target: T13, HPK1 (Homo sapiens, UniProt Q92918)
T13 construct: purchased Eurofins/DiscoverX KINOMEscan scanMAX
Procedure: as §1

IGF1R = target: T14, IGF1R (Homo sapiens, UniProt P08069)
T14 construct: purchased Eurofins/DiscoverX KINOMEscan scanMAX
Procedure: as §1

INSRR = target: T15, INSRR (Homo sapiens, UniProt P14616)
T15 construct: purchased Eurofins/DiscoverX KINOMEscan scanMAX
Procedure: as §1

IRAK1 = target: T16, IRAK1 (Homo sapiens, UniProt P51617)
T16 construct: purchased Eurofins/DiscoverX KINOMEscan scanMAX
Procedure: as §1

KIT(D816H) = target: T17, KIT(D816H) (Homo sapiens, UniProt P10721, D816H)
T17 construct: purchased Eurofins/DiscoverX KINOMEscan scanMAX
Procedure: as §1

KIT(V559D,T670I) = target: T18, KIT(V559D,T670I) (Homo sapiens, UniProt P10721, T670I/V559D)
T18 construct: purchased Eurofins/DiscoverX KINOMEscan scanMAX
Procedure: as §1

LTK = target: T19, LTK (Homo sapiens, UniProt P29376)
T19 construct: purchased Eurofins/DiscoverX KINOMEscan scanMAX
Procedure: as §1

MET = target: T20, MET (Homo sapiens, UniProt P08581)
T20 construct: purchased Eurofins/DiscoverX KINOMEscan scanMAX
Procedure: as §1

MUSK = target: T21, MUSK (Homo sapiens, UniProt O15146)
T21 construct: purchased Eurofins/DiscoverX KINOMEscan scanMAX
Procedure: as §1

NDR1 = target: T22, NDR1 (Homo sapiens, UniProt Q15208)
T22 construct: purchased Eurofins/DiscoverX KINOMEscan scanMAX
Procedure: as §1

NLK = target: T23, NLK (Homo sapiens, UniProt Q9UBE8)
T23 construct: purchased Eurofins/DiscoverX KINOMEscan scanMAX
Procedure: as §1

PAK2 = target: T24, PAK2 (Homo sapiens, UniProt Q13177)
T24 construct: purchased Eurofins/DiscoverX KINOMEscan scanMAX
Procedure: as §1

PCTK2 = target: T25, PCTK2 (Homo sapiens, UniProt Q00537)
T25 construct: purchased Eurofins/DiscoverX KINOMEscan scanMAX
Procedure: as §1

PDGFRB = target: T26, PDGFRB (Homo sapiens, UniProt P09619)
T26 construct: purchased Eurofins/DiscoverX KINOMEscan scanMAX
Procedure: as §1

PFTAIRE2 = target: T27, PFTAIRE2 (Homo sapiens, UniProt Q96Q40)
T27 construct: purchased Eurofins/DiscoverX KINOMEscan scanMAX
Procedure: as §1

PIK3C2G = target: T28, PIK3C2G (Homo sapiens, UniProt O75747)
T28 construct: purchased Eurofins/DiscoverX KINOMEscan scanMAX
Procedure: as §1

PIM2 = target: T29, PIM2 (Homo sapiens, UniProt Q9P1W9)
T29 construct: purchased Eurofins/DiscoverX KINOMEscan scanMAX
Procedure: as §1

PIP5K2C = target: T30, PIP5K2C (Homo sapiens, UniProt Q8TBX8)
T30 construct: purchased Eurofins/DiscoverX KINOMEscan scanMAX
Procedure: as §1

PKAC-beta = target: T31, PKAC-beta (Homo sapiens, UniProt P22694)
T31 construct: purchased Eurofins/DiscoverX KINOMEscan scanMAX
Procedure: as §1

PKN1 = target: T32, PKN1 (Homo sapiens, UniProt Q16512)
T32 construct: purchased Eurofins/DiscoverX KINOMEscan scanMAX
Procedure: as §1

QSK = target: T33, QSK (Homo sapiens, UniProt Q9Y2K2)
T33 construct: purchased Eurofins/DiscoverX KINOMEscan scanMAX
Procedure: as §1

ROCK1 = target: T34, ROCK1 (Homo sapiens, UniProt Q13464)
T34 construct: purchased Eurofins/DiscoverX KINOMEscan scanMAX
Procedure: as §1

[3] = target: T35, RSK4(Kin.Dom.1-N-terminal) (Homo sapiens, UniProt Q9UK32)
T35 construct: RSK4(Kin.Dom.1-N-terminal); purchased Eurofins/DiscoverX KINOMEscan scanMAX
Procedure: as §1

SGK = target: T36, SGK (Homo sapiens, UniProt O00141)
T36 construct: purchased Eurofins/DiscoverX KINOMEscan scanMAX
Procedure: as §1

SGK2 = target: T37, SGK2 (Homo sapiens, UniProt Q9HBY8)
T37 construct: purchased Eurofins/DiscoverX KINOMEscan scanMAX
Procedure: as §1

SIK = target: T38, SIK (Homo sapiens, UniProt P57059)
T38 construct: purchased Eurofins/DiscoverX KINOMEscan scanMAX
Procedure: as §1

SNRK = target: T39, SNRK (Homo sapiens, UniProt Q9NRH2)
T39 construct: purchased Eurofins/DiscoverX KINOMEscan scanMAX
Procedure: as §1

STK35 = target: T40, STK35 (Homo sapiens, UniProt Q8TDR2)
T40 construct: purchased Eurofins/DiscoverX KINOMEscan scanMAX
Procedure: as §1

TAOK1 = target: T41, TAOK1 (Homo sapiens, UniProt Q7L7X3)
T41 construct: purchased Eurofins/DiscoverX KINOMEscan scanMAX
Procedure: as §1

TNNI3K = target: T42, TNNI3K (Homo sapiens, UniProt Q59H18)
T42 construct: purchased Eurofins/DiscoverX KINOMEscan scanMAX
Procedure: as §1

p38-gamma = target: T43, p38-gamma (Homo sapiens, UniProt P53778)
T43 construct: purchased Eurofins/DiscoverX KINOMEscan scanMAX
Procedure: as §1

T17 sequence (P10721 26-976 D816H): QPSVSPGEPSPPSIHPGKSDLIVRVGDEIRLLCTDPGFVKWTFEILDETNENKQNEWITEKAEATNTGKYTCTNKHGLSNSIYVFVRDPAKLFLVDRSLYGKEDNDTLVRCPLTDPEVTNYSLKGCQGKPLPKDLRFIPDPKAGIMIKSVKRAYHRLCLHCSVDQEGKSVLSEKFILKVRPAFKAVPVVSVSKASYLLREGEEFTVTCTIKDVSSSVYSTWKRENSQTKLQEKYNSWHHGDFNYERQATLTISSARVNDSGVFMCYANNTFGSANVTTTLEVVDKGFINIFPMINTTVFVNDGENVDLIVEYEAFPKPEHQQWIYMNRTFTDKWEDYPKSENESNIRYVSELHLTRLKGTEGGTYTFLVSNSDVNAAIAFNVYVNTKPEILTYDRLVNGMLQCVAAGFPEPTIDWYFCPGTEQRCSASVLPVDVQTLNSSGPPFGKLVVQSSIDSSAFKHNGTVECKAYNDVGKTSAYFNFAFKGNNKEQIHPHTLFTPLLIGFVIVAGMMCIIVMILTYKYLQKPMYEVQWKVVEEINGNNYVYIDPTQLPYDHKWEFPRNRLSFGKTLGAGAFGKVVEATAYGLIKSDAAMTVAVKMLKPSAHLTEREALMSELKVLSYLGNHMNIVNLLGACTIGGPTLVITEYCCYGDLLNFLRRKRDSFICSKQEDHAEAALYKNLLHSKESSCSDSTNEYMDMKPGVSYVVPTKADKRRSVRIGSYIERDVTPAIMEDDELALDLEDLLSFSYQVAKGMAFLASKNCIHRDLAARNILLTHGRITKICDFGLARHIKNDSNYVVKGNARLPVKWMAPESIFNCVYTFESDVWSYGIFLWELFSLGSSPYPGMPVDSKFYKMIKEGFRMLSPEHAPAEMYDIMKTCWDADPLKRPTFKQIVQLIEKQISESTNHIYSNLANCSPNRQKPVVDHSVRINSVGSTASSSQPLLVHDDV
T35 sequence (Q9UK32 73-400 limits assumed): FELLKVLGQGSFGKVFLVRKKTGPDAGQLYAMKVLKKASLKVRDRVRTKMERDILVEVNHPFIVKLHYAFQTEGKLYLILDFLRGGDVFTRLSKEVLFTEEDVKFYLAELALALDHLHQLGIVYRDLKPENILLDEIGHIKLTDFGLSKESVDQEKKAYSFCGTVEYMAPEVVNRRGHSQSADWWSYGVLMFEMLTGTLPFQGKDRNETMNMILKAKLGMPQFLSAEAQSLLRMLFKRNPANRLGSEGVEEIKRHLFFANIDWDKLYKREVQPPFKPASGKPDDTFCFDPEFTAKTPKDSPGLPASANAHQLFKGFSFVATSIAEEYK
T14 sequence (P08069 31-1367): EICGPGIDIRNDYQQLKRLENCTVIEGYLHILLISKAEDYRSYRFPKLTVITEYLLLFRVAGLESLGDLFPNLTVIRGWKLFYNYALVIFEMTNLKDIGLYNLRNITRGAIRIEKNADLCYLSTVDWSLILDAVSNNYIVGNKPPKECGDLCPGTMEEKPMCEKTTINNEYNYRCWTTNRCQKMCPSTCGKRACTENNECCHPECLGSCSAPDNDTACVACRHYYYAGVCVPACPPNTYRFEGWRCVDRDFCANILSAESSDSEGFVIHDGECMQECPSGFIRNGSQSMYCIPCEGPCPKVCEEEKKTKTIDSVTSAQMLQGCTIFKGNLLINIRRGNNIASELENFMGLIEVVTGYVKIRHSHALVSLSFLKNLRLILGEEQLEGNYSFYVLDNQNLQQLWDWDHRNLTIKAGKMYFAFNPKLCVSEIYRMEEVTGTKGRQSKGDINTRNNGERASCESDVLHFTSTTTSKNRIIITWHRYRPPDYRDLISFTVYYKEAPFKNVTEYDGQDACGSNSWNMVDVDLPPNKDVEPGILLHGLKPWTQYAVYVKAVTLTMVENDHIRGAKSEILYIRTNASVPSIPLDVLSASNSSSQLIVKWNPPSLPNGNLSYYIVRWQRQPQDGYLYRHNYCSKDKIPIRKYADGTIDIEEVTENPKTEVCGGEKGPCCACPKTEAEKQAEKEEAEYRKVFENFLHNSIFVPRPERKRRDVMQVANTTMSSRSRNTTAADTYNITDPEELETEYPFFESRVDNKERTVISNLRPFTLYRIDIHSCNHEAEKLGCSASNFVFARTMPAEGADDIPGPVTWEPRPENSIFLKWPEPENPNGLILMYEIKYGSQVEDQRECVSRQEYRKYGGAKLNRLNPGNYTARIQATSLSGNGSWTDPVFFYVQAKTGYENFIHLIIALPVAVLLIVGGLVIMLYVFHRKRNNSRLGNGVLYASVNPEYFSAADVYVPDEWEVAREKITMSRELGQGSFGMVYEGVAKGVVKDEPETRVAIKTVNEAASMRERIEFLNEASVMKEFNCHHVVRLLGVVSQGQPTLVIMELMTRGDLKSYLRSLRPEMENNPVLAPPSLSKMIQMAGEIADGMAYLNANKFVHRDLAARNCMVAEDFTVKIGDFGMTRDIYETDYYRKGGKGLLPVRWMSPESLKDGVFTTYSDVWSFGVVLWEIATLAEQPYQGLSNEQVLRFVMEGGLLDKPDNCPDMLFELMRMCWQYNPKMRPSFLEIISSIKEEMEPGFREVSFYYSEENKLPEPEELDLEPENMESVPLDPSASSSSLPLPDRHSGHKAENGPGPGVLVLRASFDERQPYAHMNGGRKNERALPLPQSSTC
T39 sequence (Q9NRH2 whole entry): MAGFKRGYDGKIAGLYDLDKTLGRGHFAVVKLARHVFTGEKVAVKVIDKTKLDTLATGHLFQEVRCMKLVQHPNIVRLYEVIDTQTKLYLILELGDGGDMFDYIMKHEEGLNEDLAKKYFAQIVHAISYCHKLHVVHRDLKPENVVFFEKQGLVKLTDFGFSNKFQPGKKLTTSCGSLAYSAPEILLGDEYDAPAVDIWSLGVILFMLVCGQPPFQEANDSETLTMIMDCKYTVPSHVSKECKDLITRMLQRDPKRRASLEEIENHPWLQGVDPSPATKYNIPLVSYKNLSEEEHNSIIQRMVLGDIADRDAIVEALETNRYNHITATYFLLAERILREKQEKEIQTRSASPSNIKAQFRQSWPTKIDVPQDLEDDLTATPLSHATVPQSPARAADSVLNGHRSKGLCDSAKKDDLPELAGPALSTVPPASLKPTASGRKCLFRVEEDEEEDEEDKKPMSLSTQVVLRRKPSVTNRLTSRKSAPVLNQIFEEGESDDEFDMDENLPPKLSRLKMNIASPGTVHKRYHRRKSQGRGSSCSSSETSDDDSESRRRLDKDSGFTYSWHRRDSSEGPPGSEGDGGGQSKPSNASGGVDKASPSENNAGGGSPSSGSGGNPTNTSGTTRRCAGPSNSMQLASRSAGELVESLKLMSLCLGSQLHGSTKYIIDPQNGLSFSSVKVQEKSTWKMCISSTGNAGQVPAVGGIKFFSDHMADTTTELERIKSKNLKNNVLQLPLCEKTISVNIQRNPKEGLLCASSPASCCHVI
T5 sequence (P11802 whole entry): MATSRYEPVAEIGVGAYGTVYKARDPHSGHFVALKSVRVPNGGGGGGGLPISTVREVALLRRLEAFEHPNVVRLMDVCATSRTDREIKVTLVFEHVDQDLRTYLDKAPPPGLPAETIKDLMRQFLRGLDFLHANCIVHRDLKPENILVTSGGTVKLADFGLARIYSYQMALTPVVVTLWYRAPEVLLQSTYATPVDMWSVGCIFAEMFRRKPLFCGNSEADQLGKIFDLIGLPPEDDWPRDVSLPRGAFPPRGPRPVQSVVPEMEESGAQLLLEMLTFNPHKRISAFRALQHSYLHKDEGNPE
T25 sequence (Q00537 whole entry): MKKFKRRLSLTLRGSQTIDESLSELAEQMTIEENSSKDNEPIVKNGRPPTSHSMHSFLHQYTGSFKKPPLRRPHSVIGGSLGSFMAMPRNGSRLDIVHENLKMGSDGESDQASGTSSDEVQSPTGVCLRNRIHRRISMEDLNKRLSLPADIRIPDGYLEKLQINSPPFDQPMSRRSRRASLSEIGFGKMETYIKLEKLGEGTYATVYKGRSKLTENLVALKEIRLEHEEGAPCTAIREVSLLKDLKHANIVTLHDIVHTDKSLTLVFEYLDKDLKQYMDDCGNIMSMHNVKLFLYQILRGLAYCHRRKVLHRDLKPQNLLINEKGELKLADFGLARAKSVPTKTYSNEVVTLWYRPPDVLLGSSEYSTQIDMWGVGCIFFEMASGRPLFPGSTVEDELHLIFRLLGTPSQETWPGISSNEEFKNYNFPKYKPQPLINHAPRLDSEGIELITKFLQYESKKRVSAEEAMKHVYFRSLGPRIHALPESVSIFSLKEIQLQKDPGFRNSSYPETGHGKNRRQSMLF
T6 sequence (P50613 whole entry): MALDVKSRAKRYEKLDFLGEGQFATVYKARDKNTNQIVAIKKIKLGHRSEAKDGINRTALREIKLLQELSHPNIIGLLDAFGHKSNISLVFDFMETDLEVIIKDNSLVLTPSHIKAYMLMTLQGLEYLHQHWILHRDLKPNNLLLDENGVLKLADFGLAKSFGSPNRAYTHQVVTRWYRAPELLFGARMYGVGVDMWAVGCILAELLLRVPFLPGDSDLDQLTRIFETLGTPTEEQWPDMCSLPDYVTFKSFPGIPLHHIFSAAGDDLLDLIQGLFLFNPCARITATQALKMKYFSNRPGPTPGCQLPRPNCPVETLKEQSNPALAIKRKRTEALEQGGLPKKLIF
T7 sequence (Q92772 whole entry): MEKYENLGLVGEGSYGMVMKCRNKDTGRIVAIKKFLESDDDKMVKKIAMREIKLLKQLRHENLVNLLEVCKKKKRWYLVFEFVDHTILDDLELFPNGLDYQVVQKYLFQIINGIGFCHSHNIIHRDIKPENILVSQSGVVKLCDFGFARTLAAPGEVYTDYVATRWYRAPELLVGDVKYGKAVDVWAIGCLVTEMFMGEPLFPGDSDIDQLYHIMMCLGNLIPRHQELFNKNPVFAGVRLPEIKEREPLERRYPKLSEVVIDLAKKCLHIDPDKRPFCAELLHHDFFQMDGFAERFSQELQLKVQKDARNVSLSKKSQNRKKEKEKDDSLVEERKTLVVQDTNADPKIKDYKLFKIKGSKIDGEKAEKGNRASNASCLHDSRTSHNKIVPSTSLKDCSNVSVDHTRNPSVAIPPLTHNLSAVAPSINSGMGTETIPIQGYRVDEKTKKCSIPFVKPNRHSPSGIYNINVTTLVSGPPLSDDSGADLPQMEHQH

## CN1CCN(C2CCC(n3cc(-c4ccc(Oc5ccccc5)cc4)c4c(N)ncnc43)CC2)CC1 (stereo not shown) [A-419259]
AAK1
  % Control: 100%
[1]
  % Control: 0%
[2]
  % Control: 0.5%
AMPK-alpha2
  % Control: 42%
CDK4
  % Control: 91%
CDK7
  % Control: 28%
CDKL2
  % Control: 70%
FGR
  % Control: 0.85%
GRK1
  % Control: 100%
GRK3
  % Control: 100%
GSK3B
  % Control: 95%
HASPIN
  % Control: 70%
HPK1
  % Control: 44%
IGF1R
  % Control: 80%
INSRR
  % Control: 86%
IRAK1
  % Control: 98%
KIT(D816H)
  % Control: 40%
KIT(V559D,T670I)
  % Control: 40%
LTK
  % Control: 36%
MET
  % Control: 58%
MUSK
  % Control: 100%
NDR1
  % Control: 68%
NLK
  % Control: 83%
PAK2
  % Control: 91%
PCTK2
  % Control: 59%
PDGFRB
  % Control: 0%
PFTAIRE2
  % Control: 89%
PIK3C2G
  % Control: 100%
PIM2
  % Control: 100%
PIP5K2C
  % Control: 95%
PKAC-beta
  % Control: 100%
PKN1
  % Control: 88%
QSK
  % Control: 93%
ROCK1
  % Control: 90%
[3]
  % Control: 68%
SGK
  % Control: 75%
SGK2
  % Control: 90%
SIK
  % Control: 2.1%
SNRK
  % Control: 94%
STK35
  % Control: 27%
TAOK1
  % Control: 100%
TNNI3K
  % Control: 91%
p38-gamma
  % Control: 100%
